By IC50 is commonly meant the point on the concentration scale where inhibition reaches its midpoint. One may read the IC90 as the point of the concentration-response curve where the effect stands at 90%. The term MIC50 denotes the lowest concentration that inhibits either 50% of growth or 50% of the strains tested, depending on the study. A word on the MIC: it is the lowest concentration that inhibits growth of the organism.

Test [1] has as its system M. mycetomatis. The test can be described thus: Drug static or cidal. Format: cell-based, Madurella mycetomatis. The source says:
Supplement pntd.0010159.s001.xlsx, sheet "Pandemic Box Master sheet" | column: Drug static or cidal

Test [2] has as its system M. mycetomatis MM55. Kind of test: IC50 determination, 2-fold dilution series. Format: cell-based, Madurella mycetomatis. The following applies: Madurella mycetomatis.
Test [3] has as its system M. mycetomatis genome strain MM55. Kind of test: CLSI M38-A2 based in vitro susceptibility screening (XTT or resazurin), growth at fixed concentration. The following applies: for activity at 25 µM / activity at 100 µM: Madurella mycetomatis. Format: cell-based, Madurella mycetomatis. Background: Tetrazolium dyes change colour on reduction, which living cells bring about.
The subject of test [4] is ten different M. mycetomatis isolates. Kind of test: MIC / MIC50 determination (XTT) in ten M. mycetomatis isolates. The test is classed as cell-based, Madurella mycetomatis. Particulars: Madurella mycetomatis.
In test [5] the test system is M. tropicana strain CBS206.47. Kind of test: CLSI M38-A2 based in vitro susceptibility screening at 25 μM. Format: cell-based, Madurella tropicana. The following applies: selected if >75% (resazurin) or >80% (XTT) fungal growth inhibited. A general note: The colour change of resazurin is a common sign of viable cells or microbes.
Test [6] has as its system M. pseudomycetomatis strain Mex2A. Described as above. The following applies: selected if >75% (resazurin) or >80% (XTT) fungal growth inhibited. Format: cell-based, Madurella pseudomycetomatis.
[7] abbreviates: MM55, mean of replicates, read-out: IC50 mean.
Setting [8] is: MM55, mean of replicates, read-out: IC90 mean.
The mark [9] stands for this setting: MM55, replicate 1, read-out: IC50 1 um.
The mark [10] stands for this setting: MM55, replicate 1, read-out: IC90 1 um.
Where [11] appears, read: MM55, replicate 2, read-out: IC50 2 um.
Setting [12] is: MM55, replicate 2, read-out: IC90 2 um.
The mark [13] stands for this setting: MM55, replicate 3, read-out: IC50 3 um.
The mark [14] stands for this setting: MM55, replicate 3, read-out: IC90 3 um.
Setting [15] is: mean of three replicates, read-out: Percentage survival at 25um, 25 uM mean.
The mark [16] stands for this setting: replicate A, read-out: Percentage survival at 25um, 25 um A.
Where [17] appears, read: replicate B, read-out: Percentage survival at 25um, 25 uM B.
[18] abbreviates: replicate C, read-out: Percentage survival at 25um, 25 uM C.
[19] abbreviates: first replicate column, read-out: Percentage survival at 100um, 100 uM A.
[20] abbreviates: mean of three replicates, read-out: Percentage survival at 100um, 100 uM mean.
The mark [21] stands for this setting: second replicate column, read-out: Percentage survival at 100um, 100 uM A.
Setting [22] is: third replicate column, read-out: Percentage survival at 100um, 100 uM A.
Setting [23] is: MM55, replicate 1, read-out: IC50 1.
Where [24] appears, read: MM55, replicate 1, read-out: IC90 1.
[25] abbreviates: MM55, replicate 2, read-out: IC50 2.
[26] abbreviates: MM55, replicate 2, read-out: IC90 2.
The mark [27] stands for this setting: MM55, replicate 3, read-out: IC50 3.
[28] abbreviates: MM55, replicate 3, read-out: IC90 3.
The mark [29] stands for this setting: mean of replicates, read-out: Percentage survival at 25um, 25 uM mean.
Where [30] appears, read: mean of replicates, read-out: Percentage survival at 100um, 100 uM mean.
Where [31] appears, read: replicate 1, read-out: Percentage survival at 100um, 100 uM A.
[32] abbreviates: replicate 2, read-out: Percentage survival at 100um, 100 uM A.
Setting [33] is: replicate 3, read-out: Percentage survival at 100um, 100 uM A.

Each structure is given as a SMILES string. ≈ marks a conversion by molar mass, not a printed value. Where two headings read alike, the source gives them in different places.

With `Clc1ccc(Cn2c(CN3CCCC3)nc3ccccc32)cc1` [MMV002015], the “Drug static or cidal” value in test [1] is given as “Cidal”. Besides, the IC50 in test [2] (setting [7]), in test [2] (setting [9]), in test [2] (setting [11]) and in test [2] (setting [13]) was above 25 µM each time. Moreover, the IC90 in test [2] (setting [8]), in test [2] (setting [10]), in test [2] (setting [12]) and in test [2] (setting [14]) was above 25 µM in each case. In addition, the activity at 25 µM in test [3] (setting [15]) was 6.67%; in test [3] (setting [16]), 9.47%; in test [3] (setting [17]) it was -1.23%; in test [3] (setting [18]) it was 11.8%. For the same compound, the activity at 100 µM in test [3] (setting [19]) came out at 3.95%; in test [3] (setting [20]) it was 4.96%; in test [3] (setting [21]), 6.49%; in test [3] (setting [22]) it was 4.45%.
For the compound `Oc1cccc(C(Nc2nccs2)c2ccc3cccnc3c2O)c1` (stereo not shown) [MMV642550], the “Drug static or cidal” value in test [1] is recorded as “Cidal”. The IC50 in test [2] (setting [7]), in test [2] (setting [9]), in test [2] (setting [11]) and in test [2] (setting [13]) was above 25 µM each time. Moreover, the IC90 in test [2] (setting [8]), in test [2] (setting [10]), in test [2] (setting [12]) and in test [2] (setting [14]) was above 25 µM each time. Besides, the activity at 25 µM is 1.21% in test [3] (setting [15]), -5.33% in test [3] (setting [16]), 6.92% in test [3] (setting [17]) and 2.03% in test [3] (setting [18]). Further, the activity at 100 µM in test [3] (setting [19]) stood at 4.63%; in test [3] (setting [20]) it was 8.03%; in test [3] (setting [21]) it was 8.66%; in test [3] (setting [22]), 10.8%.
`CCN(CC)CCn1c(=N)n(CC(O)COc2ccc(Cl)cc2Cl)c2ccccc21` (stereo not shown) [MMV000725]: the MIC50 in test [4] (median MIC over ten M. mycetomatis isolates, no asterisk, read-out: MIC50) was 16 µM (≈ 7.22 µg/mL); in test [4] (ten isolates, read-out: MIC50 mean), below 16 µM. For the same compound, the MIC is above 16 µM in test [4] (isolate CBS247.48, read-out: MIC CBS247.48); above 16 µM in test [4] (isolate MM14, read-out: MIC MM14); above 16 µM in test [4] (isolate MM45, read-out: MIC MM45); above 16 µM in test [4] (isolate MM55, read-out: MIC MM55); above 16 µM in test [4] (isolate P1, read-out: MIC P1); above 16 µM in test [4] (isolate ParijsAl1, read-out: MIC ParijsAl1). For the same compound, the MIC in test [4] (isolate Peru72012, read-out: MIC Peru72012) is above 16 µM; in test [4] (isolate So1, read-out: MIC So1), 16 µM (≈ 7.22 µg/mL); in test [4] (isolate i1, read-out: MIC i1), 16 µM (≈ 7.22 µg/mL); in test [4] (isolate i11, read-out: MIC i11), above 16 µM. Also, in test [1], the “Drug static or cidal” value was “Cidal”. For the same compound, the IC50 was 8.21 µM in test [2] (MM55, Table 2, M. mycetomatis MM55, read-out: IC50); 8.22 µM in test [2] (setting [7]); 2.8 µM in test [2] (setting [23]); 9.6 µM in test [2] (setting [25]); 12.2 µM in test [2] (setting [27]). Further, the IC90 was found to be 18.7 µM in test [2] (setting [8]), 13.2 µM in test [2] (setting [24]), 21.1 µM in test [2] (setting [26]) and 21.8 µM in test [2] (setting [28]). Besides, the activity at 25 µM in test [3] (setting [29]) was 2.68%; in test [3] (setting [16]) it was 3.92%; in test [3] (setting [17]), 1.56%; in test [3] (setting [18]) it was 2.57%. Moreover, the activity at 100 µM in test [3] (setting [30]) turned out to be 4.47%; in test [3] (setting [31]), 4.59%; in test [3] (setting [32]), 3.57%; in test [3] (setting [33]) it was 5.25%.
`CN1CCN(Cc2ccc(-c3cnc4[nH]cc(-c5ccc6[nH]ccc6c5)c4c3)cc2)CC1` [MMV1580482]: the “Drug static or cidal” value in test [1] is “Static”. The IC50 was found to be 15.8 µM in test [2] (setting [7]), 17.4 µM in test [2] (setting [9]), 15.3 µM in test [2] (setting [11]) and 14.6 µM in test [2] (setting [13]). In addition, the IC90 in test [2] (setting [10]) is above 25 µM; in test [2] (setting [12]), 22.8 µM; in test [2] (setting [14]) it was 22.2 µM. Moreover, the activity at 25 µM in test [3] (setting [15]) came out at 2.87%; in test [3] (setting [16]), 0.0624%; in test [3] (setting [17]) it was 1.21%; in test [3] (setting [18]) it was 7.33%. Also, the activity at 100 µM is 27.2% in test [3] (setting [19]), 16.3% in test [3] (setting [20]), 11.5% in test [3] (setting [21]) and 10.2% in test [3] (setting [22]).
As to `Cc1ccc(S(=O)(=O)Nc2cccc3cccnc23)cc1` [MMV233495], the “Drug static or cidal” value in test [1] is on record as “Static”. For the same compound, the IC50 was above 25 µM in test [2] (setting [7]), 18.5 µM in test [2] (setting [23]), above 25 µM in test [2] (setting [25]) and above 25 µM in test [2] (setting [27]). For the same compound, the IC90 in test [2] (setting [8]), in test [2] (setting [24]), in test [2] (setting [26]) and in test [2] (setting [28]) was above 25 µM each time. In addition, the activity at 25 µM in test [3] (setting [29]) is 17.1%; in test [3] (setting [16]) it was 5.12%; in test [3] (setting [17]) it was -0.547%; in test [3] (setting [18]), 46.8%. In addition, the activity at 100 µM in test [3] (setting [30]) was 31.3%; in test [3] (setting [31]), -0.389%; in test [3] (setting [32]), 38.9%; in test [3] (setting [33]), 55.5%.
On to `O=C(Nc1nnc(-c2ccc(Cl)cc2)o1)c1ccc(F)cc1` [MMV1782140], for which the “Drug static or cidal” value in test [1] is “Cidal”. Also, the IC50 in test [2] (setting [7]) was 13.4 µM; in test [2] (setting [23]), 15.2 µM; in test [2] (setting [25]), 11.5 µM; in test [2] (setting [27]), 13.5 µM. The 90% effect concentration (IC90) was 23.2 µM in test [2] (setting [24]), 21.7 µM in test [2] (setting [26]) and above 25 µM in test [2] (setting [28]). Also, the activity at 25 µM is 8.95% in test [3] (setting [29]), 5.38% in test [3] (setting [16]), 8.31% in test [3] (setting [17]) and 13.2% in test [3] (setting [18]). Further, the activity at 100 µM in test [3] (setting [30]) was 2.78%; in test [3] (setting [31]) it was -0.102%; in test [3] (setting [32]), 3.75%; in test [3] (setting [33]), 4.7%.
Regarding `Cc1ccc(NC(=O)c2cc(Cl)ccc2O)cc1` [MMV1578897], the “Drug static or cidal” value in test [1] is on record as “Static”. Further, the half-inhibitory concentration (IC50) in test [2] (setting [7]), in test [2] (setting [23]), in test [2] (setting [25]) and in test [2] (setting [27]) was above 25 µM in each case. Moreover, the IC90 in test [2] (setting [8]), in test [2] (setting [24]), in test [2] (setting [26]) and in test [2] (setting [28]) was above 25 µM throughout. For the same compound, the activity at 25 µM in test [3] (setting [29]) is 4.86%; in test [3] (setting [16]) it was 3.43%; in test [3] (setting [17]), 0.378%; in test [3] (setting [18]), 10.8%. Further, the activity at 100 µM was 2.02% in test [3] (setting [30]), 2.19% in test [3] (setting [31]), 0.189% in test [3] (setting [32]) and 3.69% in test [3] (setting [33]).
On to `OC(Cn1cncn1)(Cn1cncn1)c1ccc(F)cc1F` [fluconazole], for which, in test [5], the “Inhibits growth of Madurella tropicana at 25 μM” value is “not M. mycetomatis and M. tropicana”. Further, in test [3] (25 μM, selected if >75% (resazurin) or >80% (XTT) fungal growth inhibited), the “Inhibits growth of Madurella mycetomatis at 25 μM” value was “not M. mycetomatis and M. tropicana”. Further, the “Inhibits growth of Madurella pseudomycetomatis at 25 μM” value in test [6] is recorded as “inhibit the growth”.

The values are drawn from publication PMC8815882, “Screening the pandemic response box identified benzimidazole carbamates, Olorofim and ravuconazole as promising drug candidates for the treatment of eumycetoma” (PLoS Neglected Tropical Diseases, 2022).
